Laboratory results from ChEMBL document CHEMBL2396590, “Inhibition of HIV-1 integrase dimerization and activity with crosslinked interfacial peptides” (Bioorg Med Chem, 2013).
The source made the active and inactive calls. The calls are words filed in the database; no cut-off is given here. Non-standard residues stand in square brackets, D forms with d. Residues, ends and D or L forms follow the SMILES beside them. Ahx = NCCCCCC(=O)O

Assays:
[1] = tested on: Human immunodeficiency virus type 1 integrase (Human immunodeficiency virus 1), Q7ZJM1 [F185K,C280S]; assay: Inhibition of HIV1 integrase F185K/C280S double mutant dimerization expressed in Escherichia coli BL21 (DE3) at 100 fold excess compound concentration after 1 hr by PAGE analysis
[2] = tested on: Human immunodeficiency virus type 1 integrase (Human immunodeficiency virus 1), Q7ZJM1 [F185K,C280S]; assay: Inhibition of HIV1 integrase F185K/C280S double mutant dimerization expressed in Escherichia coli BL21 (DE3) at 110 uM after 1 hr by PAGE analysis
[3] = molecular target: Human immunodeficiency virus type 1 integrase (Human immunodeficiency virus 1, UniProt Q7ZJM1, C280S/F185K); assay: Inhibition of HIV1 3'-processing activity of integrase F185K/C280S double mutant expressed in Escherichia coli BL21 (DE3)

## CC[C@H](C)[C@H](NC(=O)[C@H](CC(=O)O)NC(=O)[C@@H](NC(=O)[C@H](C)NC(=O)[C@@H](NC(=O)[C@@H](NC(=O)[C@H](CC(=O)O)NC(=O)[C@@H](NC(=O)[C@@H](NC(=O)[C@H](CCCNC(=N)N)NC(=O)[C@H](CCC(=O)O)NC(=O)CNC(=O)[C@H](C)NC(=O)CCCCCNC(=O)[C@H](CCCNC(=N)N)NC(=O)[C@H](CCCCN)NC(=O)[C@H](Cc1ccccc1)NC(=O)[C@H](CC(N)=O)NC(=O)[C@H](Cc1cnc[nH]1)NC(=O)[C@@H](NC(=O)[C@H](Cc1ccccc1)NC(=O)[C@@H](NC(=O)[C@H](C)NC(=O)[C@H](CCSC)NC(=O)[C@H](CCC(N)=O)NC(=O)[C@@H](NC(=O)[C@H](C)NC(=O)[C@@H](NC(=O)[C@H](CCCCN)NC(=O)[C@H](CC(C)C)NC(=O)[C@@H](N)Cc1cnc[nH]1)[C@@H](C)O)C(C)C)C(C)C)[C@@H](C)CC)[C@@H](C)CC)C(C)C)[C@@H](C)CC)[C@@H](C)CC)[C@@H](C)O)C(=O)N[C@@H](CCC(N)=O)C(N)=O (H-HLKTAVQMAVFIHNFKR[Ahx]AGERIVDIIATDIQ-NH2)
[1]
  inhibition: inactive
[2]
  inhibition: inactive
[3]
  IC50: 1500 nM
